From patent US8901129B2, “Methods of facilitating neural cell survival using GDNF family ligand (GFL) mimetics or RET signaling pathway activators” (GeneCode AS, priority 2009, dated 2014) come the findings set out here.

One data set deals with 6-OHDA-treated rats. Nature of the data set: Side effects / toxic effects after intrastriatal injection in 6-OHDA-treated rats. Type of data set: in vivo. The note with it: injected intrastriatally. On the procedure: GDNF mimetics compounds, GDNF or vehicle is administered to the striatum at 3 weeks after the exposure to the neurotoxin 6-OHDA. The selective damage to dopaminergic neurons in the SNc, as well as striatal levels of dopamine and its metabolites are evaluated 12 weeks after the injection of 6-OHDA with tyrosine hydroxylase (TH) immunohistochemistry and HPLC, respectively. In addition, the behavioral impairment of rats is evaluated by forelimb asymmetry test (cylinder test), amphetamine induced rotation asymmetry test and Y-maze test for stereotypic spontaneous rotation deficits.
On day 21, rats are re-anesthetized with 5% isoflurane (in 70% N2O and 30% O2; flow 300 ml/min) and placed in a stereotactic frame. During the operation concentration of anesthetic is reduced to 1-1.5%. The rectal temperature is maintained at 37.0±1.0° C. with a homeothermic blanket system. The right brain hemisphere is exposed through a small craniectomy to the skull. A stereotaxic injection of the test compound, GDNF or vehicle is made into the right striatum. Each dosing solution is infused at a speed of 1 μl/min and is equally distributed between 4 sites at the following coordinates: AP+1.0, ML+2.8, DV−6.0, −5.5, −5.0 and −4.4 mm. The cannula is left in place for another 5 min before being withdrawn. The hole in the skull is subsequently filled with repair material and the skin is closed and disinfected. The rats are allowed to recover from anesthesia and are carefully monitored for possible post surgical complications. The animals are returned to the home cages with ad libitum access to food and water.
Animals are monitored daily by laboratory personnel. […] Definitions of acceptable endpoints include: no spontaneous movements and inability to drink or eat in 24-h observation period, massive bleeding, spontaneous inflammation, missing anatomy, swelling or tumors larger than 20 mm, and inability to right itself in 30 sec period.

The target in another data set is T1, GFRα3/RET (Homo sapiens, UniProt O60609+P07949).
T1 construct: Full-length human GFRα3 cDNA (Wang et al., 2006); expressed in transfected cells; host or cells: MG87RET murine fibroblasts transiently transfected with GFRα3
T1 sequence (O60609 32-374 limits assumed): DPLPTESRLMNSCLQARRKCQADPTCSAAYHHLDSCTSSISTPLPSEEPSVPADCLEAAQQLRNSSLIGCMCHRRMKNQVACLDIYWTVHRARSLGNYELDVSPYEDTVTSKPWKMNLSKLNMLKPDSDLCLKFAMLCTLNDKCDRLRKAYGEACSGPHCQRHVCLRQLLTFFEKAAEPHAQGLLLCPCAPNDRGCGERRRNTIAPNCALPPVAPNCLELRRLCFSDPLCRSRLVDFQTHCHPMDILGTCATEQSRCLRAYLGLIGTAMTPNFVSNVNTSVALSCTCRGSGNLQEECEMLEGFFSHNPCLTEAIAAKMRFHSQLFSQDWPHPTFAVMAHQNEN
T1 sequence (P07949 29-1114): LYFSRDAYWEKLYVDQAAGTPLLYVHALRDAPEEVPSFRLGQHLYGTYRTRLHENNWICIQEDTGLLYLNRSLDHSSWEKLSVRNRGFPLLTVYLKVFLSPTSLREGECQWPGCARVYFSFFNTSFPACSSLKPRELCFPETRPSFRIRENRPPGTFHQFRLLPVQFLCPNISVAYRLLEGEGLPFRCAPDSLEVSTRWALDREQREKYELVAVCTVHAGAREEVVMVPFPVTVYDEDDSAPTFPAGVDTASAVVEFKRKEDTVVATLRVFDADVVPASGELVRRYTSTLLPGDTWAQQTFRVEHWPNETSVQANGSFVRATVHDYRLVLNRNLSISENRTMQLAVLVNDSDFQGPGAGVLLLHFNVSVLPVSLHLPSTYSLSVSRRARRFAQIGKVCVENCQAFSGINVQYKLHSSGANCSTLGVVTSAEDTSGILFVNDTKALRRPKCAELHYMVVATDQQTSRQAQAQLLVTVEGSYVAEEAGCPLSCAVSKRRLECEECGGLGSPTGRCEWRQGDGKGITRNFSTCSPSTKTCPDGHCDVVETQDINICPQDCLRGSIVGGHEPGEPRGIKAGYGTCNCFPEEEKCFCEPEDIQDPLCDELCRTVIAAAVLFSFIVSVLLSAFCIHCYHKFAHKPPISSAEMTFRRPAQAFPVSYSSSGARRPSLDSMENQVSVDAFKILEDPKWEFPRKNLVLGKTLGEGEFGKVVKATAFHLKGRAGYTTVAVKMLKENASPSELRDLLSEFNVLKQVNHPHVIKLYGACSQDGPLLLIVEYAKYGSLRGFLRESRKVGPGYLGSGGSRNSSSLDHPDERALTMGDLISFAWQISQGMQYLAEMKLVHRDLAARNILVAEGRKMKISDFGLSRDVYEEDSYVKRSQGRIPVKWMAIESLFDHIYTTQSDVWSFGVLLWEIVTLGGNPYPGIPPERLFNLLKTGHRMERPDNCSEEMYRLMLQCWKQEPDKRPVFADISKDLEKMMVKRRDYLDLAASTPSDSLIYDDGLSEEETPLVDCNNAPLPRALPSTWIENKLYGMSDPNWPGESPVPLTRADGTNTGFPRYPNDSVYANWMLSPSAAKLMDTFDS
Nature of the data set: RET phosphorylation by BT compounds, IP and Western blotting (FIG. 6B). The class given is cell-based. The conditions noted are these: 100 μM, 15 min; MG87 RET fibroblasts transfected with GFRα3. The protocol: MG87RET cells were plated on 35 mm tissue culture dishes the day before the experiment. Cells were transfected with GFRα1, GFRα3 or with an vector encoding for GFP. On the day of the experiment cells were starved for 4 hours in serum-free DMEM and stimulated with the investigated compounds (structures shown in the description of FIG. 6, above) at 100 μM concentration or with 100 ng/ml of GDNF or ARTN (positive control) for 15 min. Then cells were washed once with ice-cold PBS containing 1 mM Na3VO4 and lysed on ice in 1 ml per well of RIPA-modified buffer (50 mM Tris-HCl, pH 7.4, 150 mM NaCl, 1 mM EDTA, 1% NP-40, 1% TX-100, 10% glycerol, EDTA-free protease inhibitor cocktail (Roche), 1 mM Na3VO4, 2.5 mg/ml of sodium deoxycholate, 1 mM PMSF. Ret was immunoprecipitated by anti-RET C-20 antibodies (Santa-Cruz Biotechnology, Inc.). Precipitated proteins were resolved on 7.5% SDS-PAGE and then transferred onto a nitrocellulose membrane. Membrane was blocked for 15 min at room temperature by 10% nonfat dry milk in TBS-T and probed with anti-phosphotyrosine antibodies (clone 4G10, Upstate Biotechnology) diluted 1:1000 in TBS-T containing 3% nonfat dry milk for 2 hours at room temperature. The membranes were washed 3 times for 5 min in TBS-T and incubated in the 1:3000 solution of secondary anti-mouse antibodies conjugated with HRP (DAKO) diluted in TBS-T containing 3% nonfat dry milk for 45 min at room temperature. Membranes were washed with TBS-T for 5×10 min. Stained bands were visualized with ECL reagent (Pierce) using LAS3000 imaging program. To confirm equal loading of the proteins, membranes were probed with anti-RET C-20 antibodies (1:500, Santa-Cruz Biotechnology, inc.) after stripping. We used secondary anti-goat antibodies conjugated with HRP (1:1500, DAKO) to detect C-20.
On the technique in general: Immunoblotting shows a protein as a band on a membrane.

The test system of data set [1] is GFRα1/RET-expressing cells. Nature of the data set: Reporter-gene luciferase activity assay, dose-response (FIG. 5). The class given is cell-based. The conditions noted are these: 1-50 μM, 24 h. On the procedure:
Generation of stable cell lines. MG87RET murine fibroblast were plated on […] dishes and transfected with 4 μg of G4-Luc, Gal4-Elk (Baloh et al., 2000) and GFRα1 expressing plasmid (“αLUC” cells) or empty vector (“NOα” cells) containing neomycin-resistance gene in ratio 4:1:1 using Lipofectamine 2000 (Invitrogen) for DNA delivery as described by manufacturer. The following day, cells were trypsinized and plated in low density on 10-cm tissue culture dishes. Stable transformants were selected in the presence of 500-750 μg/ml geneticin (Invitrogen). Established cell lines were maintained in DMEM, 10% fetal bovine serum (FBS), 100 μg/ml Normocin (Invivogene), 2 μg/ml of puromycin, 500 μg/ml of geneticin, 15 mM HEPES, pH 7.2. Pathdetect Elk-1 system and human GFRα1-expressing plasmid (“Strat-Luc” cells) or empty vector (control cell line “NOStratis”) cells were selected and maintained in the DMEM, 10% FBS, 100 μg/ml Normocin (Invivogene), 2 μg/ml of puromycin, 500 μg/ml of G418, 2 μg/ml of blasticidin S, 15 mM HEPES, pH 7.2.
Cells were plated on 96-well plates (or 384-well) in cell density 20 000 (or 5 000 for 384-well format) cells per well in DMEM, 10% FBS, 100 μg/ml Normocin, 2 μg/ml puromycin, 500 μg/ml of G418, 15 mM HEPES, pH 7.2 one day before assay. The following day, the compounds were added to a final concentration of 1-50 μM. Structures of the compounds are shown in the description of FIG. 5, above. Cells were allowed to produce luciferase for 24 h, then lysed in 20 μl of 1×Cell culture lysis reagent (Promega) and freeze-thawed once to ensure complete lysis. Then 5 μl of the lysate was mixed (on ice) with 20 μl of luciferase assay substrate (Promega) in a well of black Isoplate (PerkinElmer). Luminescence was counted on MicroBeta 2 counter (PerkinElmer) twice. Data are presented as fold induction, where the corresponding concentration of DMSO was used as a reference.

For the compound `CCN(CC)S(=O)(=O)c1ccc(OC)c(N2CCN(C(=O)c3cc(F)ccc3C(F)(F)F)CC2)c1` [BT13], the “toxic effects in behavioral assays” value in the data set with 6-OHDA-treated rats is “did not cause toxic effects”. Moreover, the “RET phosphorylation via GFRα3” value at GFRα3/RET was “strongly activated RET”. Besides, the “induction of luciferase expression” value in data set [1] is on record as “in a dose-dependent manner induce luciferase expression”.

Regarding `COc1ccc(S(=O)(=O)N2CCc3ccccc3C2)cc1N1CCN(C(=O)c2cc(F)ccc2C(F)(F)F)CC1` [BT16], the “toxic effects in behavioral assays” value in the data set with 6-OHDA-treated rats is listed as “did not cause toxic effects”. The “RET phosphorylation via GFRα3” value on GFRα3/RET was “likely the weaker GFRα3/RET agonists”. In addition, the “induction of luciferase expression” value in data set [1] is listed as “in a dose-dependent manner induce luciferase expression”.

Take `COc1cc2c(cc1OC)CN(S(=O)(=O)c1ccc(OC)c(N3CCN(C(=O)c4cc(F)ccc4C(F)(F)F)CC3)c1)CC2` [BT18]: in the data set with 6-OHDA-treated rats, the “toxic effects in behavioral assays” value is listed as “did not cause toxic effects”. On GFRα3/RET, the “RET phosphorylation via GFRα3” value is “likely the weaker GFRα3/RET agonists”. The “induction of luciferase expression” value in data set [1] is on record as “active”.
